The source of these data is patent publication US20090191253A2 (Creabilis Therapeutics S.P.A., priority 2005, published 2009).

Assay [1] concerns the target T1, ALK (Homo sapiens, UniProt Q9UM73).
T1 construct: Cytoplasmic domain of human ALK [1089-1620; His (N, cleaved yes); made in house; host or cells: baculovirus expression system
The assay can be described thus: Kinase inhibition profiling ALK (ELISA). It counts as biochemical. In general terms: ELISA stands for enzyme-linked immunosorbent assay.
Description: (§1) Each test compound was weighed and dissolved in DMSO to make 1 mM stock solution. The stock solution was diluted with DMSO to achieve 20 μM. The compound solution was diluted with the assay buffer to achieve 0.8 μM.

Assay [2] concerns the target T2, JAK2 (Homo sapiens, UniProt O60674).
T2 construct: Kinase domain (KD) of human JAK2 [826-1132 amino; made in house; host or cells: baculovirus expression system
Kind of assay: Kinase inhibition profiling JAK2 (ELISA). It counts as biochemical.
Description: as §1

The target of assay [3] is T3, TYK2 (Homo sapiens, UniProt P29597).
T3 construct: Kinase domain (KD) of human TYK2 [871-1187 amino; made in house; host or cells: baculovirus expression system
T3 sequence (P29597 871-1187): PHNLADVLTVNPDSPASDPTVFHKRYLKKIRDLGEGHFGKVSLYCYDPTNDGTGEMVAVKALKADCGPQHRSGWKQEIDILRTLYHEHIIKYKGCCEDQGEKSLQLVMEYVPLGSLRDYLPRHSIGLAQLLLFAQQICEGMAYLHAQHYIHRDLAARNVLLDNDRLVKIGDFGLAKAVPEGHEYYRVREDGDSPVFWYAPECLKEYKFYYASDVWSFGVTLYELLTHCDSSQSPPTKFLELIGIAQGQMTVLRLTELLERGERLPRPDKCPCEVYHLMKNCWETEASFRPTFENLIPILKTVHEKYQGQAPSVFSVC
Kind of assay: Kinase inhibition profiling TYK2 (ELISA). It counts as biochemical.
Description: as §1

In assay [4] the target is T4, SRM (Homo sapiens, UniProt Q9H3Y6).
T4 construct: Kinase domain (KD) of human SRM [215-489 amino acids; made in house; host or cells: baculovirus expression system
T4 sequence (Q9H3Y6 215-488 limits assumed): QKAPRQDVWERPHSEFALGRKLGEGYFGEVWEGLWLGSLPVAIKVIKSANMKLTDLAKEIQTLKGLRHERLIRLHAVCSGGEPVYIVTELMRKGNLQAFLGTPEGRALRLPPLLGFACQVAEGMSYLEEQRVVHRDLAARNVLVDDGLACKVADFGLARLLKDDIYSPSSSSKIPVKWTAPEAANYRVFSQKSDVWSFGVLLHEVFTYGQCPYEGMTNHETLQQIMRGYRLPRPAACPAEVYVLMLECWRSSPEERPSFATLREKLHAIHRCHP
The assay can be described thus: Kinase inhibition profiling SRM (ELISA). It counts as biochemical.
Description: as §1

The target of assay [5] is T5, KDR (Homo sapiens, UniProt P35968).
T5 construct: Cytoplasmic domain of human KDR [790-1356 amino; made in house; host or cells: baculovirus expression system
T5 sequence (P35968 790-1356): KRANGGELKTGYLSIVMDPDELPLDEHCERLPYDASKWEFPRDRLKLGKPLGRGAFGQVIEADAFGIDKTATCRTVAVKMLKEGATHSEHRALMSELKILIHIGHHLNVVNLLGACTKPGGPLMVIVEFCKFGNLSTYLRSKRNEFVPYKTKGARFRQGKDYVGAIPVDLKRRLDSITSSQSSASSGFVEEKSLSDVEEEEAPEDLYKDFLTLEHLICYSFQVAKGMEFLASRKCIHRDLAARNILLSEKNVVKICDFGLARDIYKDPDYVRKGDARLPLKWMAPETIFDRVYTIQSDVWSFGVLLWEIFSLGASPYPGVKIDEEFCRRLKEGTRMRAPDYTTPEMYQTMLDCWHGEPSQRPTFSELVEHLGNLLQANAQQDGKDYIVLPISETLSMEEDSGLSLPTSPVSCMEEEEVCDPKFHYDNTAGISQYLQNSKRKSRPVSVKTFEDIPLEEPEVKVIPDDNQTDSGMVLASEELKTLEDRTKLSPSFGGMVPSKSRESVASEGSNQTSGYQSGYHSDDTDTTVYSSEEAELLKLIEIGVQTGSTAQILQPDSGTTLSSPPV
The assay can be described thus: Kinase inhibition profiling KDR (ELISA). In kind it is biochemical.
Description: In particular, the target kinases were Tyrosine kinases and Serine/Threonine kinases.
as §1

The target in assay [6] is T6, PKCα (Homo sapiens, UniProt P17252).
T6 construct: made in house; host or cells: baculovirus expression system
Kind of assay: Kinase inhibition profiling PKCα (IMAP). In kind it is biochemical.
Description: as §1

Assay [7] has as its target T7, PKCε (Homo sapiens, UniProt Q02156).
T7 construct: made in house; host or cells: baculovirus expression system
The assay can be described thus: Kinase inhibition profiling PKCε (IMAP). It counts as biochemical.
Description: as §1

Assay [8] addresses T8, Erk2 (Homo sapiens, UniProt P28482).
T8 construct: Human Erk2 containing 360 amino acids was expressed; His (N); made in house; host or cells: E. coli
Kind of assay: Kinase inhibition profiling Erk2 (IMAP). In kind it is biochemical.
Description: as §1

Assay [9] has as its target T9, JNK1 (Homo sapiens, UniProt P45983).
T9 construct: Human JNK1 containing 364 amino acids was expressed; His (C); made in house; host or cells: E. coli
The assay can be described thus: Kinase inhibition profiling JNK1 (ELISA). It counts as biochemical.
Description: as §1

Assay [10] has as its system bovine aorta smooth muscle cells (BASMC). Kind of assay: Chemotaxis assay, fMLP-induced migration (modified Boyden chambers). It counts as cell-based. To be noted: K-252a 3, 10, 30, 100 nM; fMLP 0.1 μM; overnight migration. The protocol:
Chemotaxis assays were performed using a well known and validated protocol (1). Modified Boyden chambers were used with filters having 5-8 μm pore size and treated with collagen I (100 μg/ml in 0.5 M acetic acid) and fibronectin (10 μg/ml, Roche). BASMC (bovine aorta smooth muscle cells) were cultured in serum-free DMEM and a sample of 20,000-40,000 cells was added to the upper well of a Boyden chamber. […] Overnight cell migration was allowed at 37+/−0.5° C., then cells were scraped off and filters were fixed in methanol and stained in a solution of 10% crystal violet in 20% methanol. All experiments were performed at least twice in triplicate. […] Random cell migration, i.e. migration in the absence of chemoattractant, was given the arbitrary value of 100%. Statistical analysis was performed using Student's t test for pairwise comparisons of treatment, or an ANOVA model for the evaluation of treatments with increasing concentrations of a reagent.

The test system is the same in assay [11]. The assay can be described thus: Proliferation assay, HMGB1-induced BASMC proliferation. The conditions noted are these: K-252a 3, 10, 30, 100 or 300 nM; HMGB1 25 ng/ml (1 nM); days 1-4. In kind it is cell-based. Here is the method: Proliferation assays were performed using an already described and validated method (1). BASMC cells (bovine aorta smooth muscle cells) were seeded in 6-well plates (10^5 cells/well) and grown in RPMI medium supplemented with 20% FCS. After 24 h, the medium was replaced with serum-free RPMI and cell were then starved for 16 hours to synchronize the cell population. […] Each experimental point represents the mean+/−SD of triplicate determinations. The experiment was repeated three times. BASMC cell proliferation was determined by detaching the cells from the plate at the indicated times (on days 1, 2, 3, and 4 of culturing) and counting the Trypan-blue excluding cells under the microscope.

In assay [12] the target is T10, HMGB1 (Homo sapiens, UniProt P09429).
T10 construct: host or cells: bacteria (inferred from the mention of bacterial contaminants)
T10 sequence (P09429 whole entry, species assumed): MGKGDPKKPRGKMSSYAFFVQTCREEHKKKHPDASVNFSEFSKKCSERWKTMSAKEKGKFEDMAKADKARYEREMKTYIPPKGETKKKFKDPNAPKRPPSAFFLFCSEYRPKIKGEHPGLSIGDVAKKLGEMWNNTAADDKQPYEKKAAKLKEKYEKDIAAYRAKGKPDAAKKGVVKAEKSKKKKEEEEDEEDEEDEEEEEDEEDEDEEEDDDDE
The assay can be described thus: Protein binding experiments by circular dichroism (CD). To be noted: assuming 1:1 stoichiometry binding. From the text:
All CD spectra were collected on a Jasco J710 spectropolarimeter equipped with a NesLab RTE111 thermal controller unity, using a quartz cylindrical cuvette with a 1 cm path length (Jasco). A scan speed of 20 nm/min, a bandwidth of o 1 nm, and a resolution of 1 nm was always used.
The spectra are heavily disturbed more than likely due to DMF.
(Circular dichroism is widely used to follow secondary structure.)

pKd: −log10 of the molar value.

T2 sequence (O60674 826-1132): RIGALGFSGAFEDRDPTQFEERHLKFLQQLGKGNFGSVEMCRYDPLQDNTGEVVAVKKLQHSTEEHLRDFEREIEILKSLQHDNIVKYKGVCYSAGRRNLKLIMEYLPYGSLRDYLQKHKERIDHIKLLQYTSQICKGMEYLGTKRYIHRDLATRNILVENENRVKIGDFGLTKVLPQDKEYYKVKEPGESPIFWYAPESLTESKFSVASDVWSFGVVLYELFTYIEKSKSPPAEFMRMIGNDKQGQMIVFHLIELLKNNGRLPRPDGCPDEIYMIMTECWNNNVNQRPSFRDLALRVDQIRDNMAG
T8 sequence (P28482 whole entry): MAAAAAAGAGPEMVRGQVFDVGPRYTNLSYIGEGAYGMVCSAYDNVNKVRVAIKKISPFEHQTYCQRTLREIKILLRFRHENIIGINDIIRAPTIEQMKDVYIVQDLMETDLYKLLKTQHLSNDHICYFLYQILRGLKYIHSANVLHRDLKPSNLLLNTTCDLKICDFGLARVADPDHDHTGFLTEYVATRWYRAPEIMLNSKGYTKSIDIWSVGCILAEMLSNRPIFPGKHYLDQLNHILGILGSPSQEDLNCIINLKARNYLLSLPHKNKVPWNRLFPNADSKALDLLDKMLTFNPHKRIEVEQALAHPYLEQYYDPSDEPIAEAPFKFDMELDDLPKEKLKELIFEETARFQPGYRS
T9 sequence (P45983 1-364 limits assumed): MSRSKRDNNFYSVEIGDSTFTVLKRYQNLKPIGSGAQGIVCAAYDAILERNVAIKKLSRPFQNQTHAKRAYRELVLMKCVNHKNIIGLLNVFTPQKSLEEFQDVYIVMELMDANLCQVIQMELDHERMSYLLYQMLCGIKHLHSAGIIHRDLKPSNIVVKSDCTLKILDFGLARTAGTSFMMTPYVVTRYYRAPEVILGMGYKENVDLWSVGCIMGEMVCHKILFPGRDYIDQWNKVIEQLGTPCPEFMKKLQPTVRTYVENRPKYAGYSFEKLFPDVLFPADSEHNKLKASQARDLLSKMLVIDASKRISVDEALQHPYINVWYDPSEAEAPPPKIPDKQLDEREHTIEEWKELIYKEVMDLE
T1 sequence (Q9UM73 1089-1620): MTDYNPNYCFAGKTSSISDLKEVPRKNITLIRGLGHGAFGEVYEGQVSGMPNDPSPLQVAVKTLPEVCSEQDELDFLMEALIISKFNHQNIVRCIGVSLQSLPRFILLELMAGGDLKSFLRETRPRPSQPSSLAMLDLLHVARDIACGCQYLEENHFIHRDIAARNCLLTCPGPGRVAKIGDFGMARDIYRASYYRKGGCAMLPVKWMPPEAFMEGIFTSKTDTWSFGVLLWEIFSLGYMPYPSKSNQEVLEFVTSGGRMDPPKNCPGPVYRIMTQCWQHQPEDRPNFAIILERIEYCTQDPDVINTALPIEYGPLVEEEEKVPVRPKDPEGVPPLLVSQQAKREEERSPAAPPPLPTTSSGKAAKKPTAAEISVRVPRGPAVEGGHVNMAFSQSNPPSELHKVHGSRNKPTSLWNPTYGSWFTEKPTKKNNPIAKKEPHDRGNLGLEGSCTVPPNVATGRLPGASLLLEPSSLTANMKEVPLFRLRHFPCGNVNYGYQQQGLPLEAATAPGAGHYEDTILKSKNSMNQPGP
T7 sequence (Q02156 whole entry): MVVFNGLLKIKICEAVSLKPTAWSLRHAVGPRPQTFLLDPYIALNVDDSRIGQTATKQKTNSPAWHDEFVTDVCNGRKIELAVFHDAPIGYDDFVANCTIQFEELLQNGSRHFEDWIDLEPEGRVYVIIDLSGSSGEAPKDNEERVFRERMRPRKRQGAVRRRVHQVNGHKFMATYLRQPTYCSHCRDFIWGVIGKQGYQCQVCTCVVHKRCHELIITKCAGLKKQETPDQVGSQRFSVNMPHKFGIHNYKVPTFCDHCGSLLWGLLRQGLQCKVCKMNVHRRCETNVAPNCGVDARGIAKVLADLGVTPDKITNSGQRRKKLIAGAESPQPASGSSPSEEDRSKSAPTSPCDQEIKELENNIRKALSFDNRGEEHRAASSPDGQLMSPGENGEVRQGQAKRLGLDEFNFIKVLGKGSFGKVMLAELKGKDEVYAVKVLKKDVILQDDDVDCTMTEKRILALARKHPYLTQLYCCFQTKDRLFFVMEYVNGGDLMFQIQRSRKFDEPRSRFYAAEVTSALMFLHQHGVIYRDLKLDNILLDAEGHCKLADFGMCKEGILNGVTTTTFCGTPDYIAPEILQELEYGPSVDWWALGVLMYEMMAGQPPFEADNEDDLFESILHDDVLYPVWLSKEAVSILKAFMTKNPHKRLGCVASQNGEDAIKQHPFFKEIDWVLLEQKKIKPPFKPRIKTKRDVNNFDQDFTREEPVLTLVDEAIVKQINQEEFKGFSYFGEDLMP

A word on the inhibition: it is the share of the control response that was lost under treatment. A lower inhibition goes with a weak effect. Broadly, the pKd is −log10 of the Kd, conventionally taken in molar units. With `COC(=O)[C@]1(O)CC2O[C@@]1(C)n1c3ccccc3c3c4c(c5c6ccccc6n2c5c31)C(=O)NC4` [K-252a], the inhibition at 0.2 µM stood at 69.5% in assay [1]; 99.5% in assay [2]; 98.1% in [3]; 0.4% in assay [4]; 62.9% in [5]; 64.4% in [6]. Moreover, the figures for the inhibition at 0.2 µM in assay [7], in assay [8] and in [9] were 60.9%, 14.2% and 94.3%, respectively. For the same molecule, the “cell migration induced by fMLP” value in assay [10] is on record as “does not interfere with cell migration induced by fMLP, whatever the concentration tested”. In assay [11], the “HMGB1-induced BASMC cell proliferation” value is “antagonizes BASMC cell proliferation at all the concentrations tested in a time-dependent fashion and in a nM range”. The molecule also showed a pKd in assay [12] of approximately 5.70.
